From the NIST ThermoML archive (doi:10.1016/j.tca.2016.12.010)

Tests used:
[1] = xn = mol fraction of the nth substance listed; conditions: 94.9 kPa, Liquid, Vibrating tube method
[2] = refractive index (Na D-line) (dimensionless); xn = mol fraction of the nth substance listed; conditions: 94.9 kPa, Liquid, (Schmidt +Haensch) refractometer (Model DSR lambda)

CCCCCCCCO [octan-1-ol] + Cc1ccccc1
Conditions	mass density, [1] [kg/m3]	refractive index, [2]
293.15 K, x1 = 0.1041	859.2	1.48465
293.15 K, x1 = 0.1973	853.95	1.4763
293.15 K, x1 = 0.3018	848.87	1.4681
293.15 K, x1 = 0.4033	844.52	1.46072
293.15 K, x1 = 0.5035	840.66	1.45442
293.15 K, x1 = 0.6007	837.23	1.44894
293.15 K, x1 = 0.6996	834.03	1.44373
293.15 K, x1 = 0.793	831.2	1.43912
293.15 K, x1 = 0.9044	828.07	1.4338
293.15 K, x1 = 1	825.57	1.4295
298.15 K, x1 = 0.1041	854.47	1.48192
298.15 K, x1 = 0.1973	849.33	1.47333
298.15 K, x1 = 0.3018	844.4	1.46514
298.15 K, x1 = 0.4033	840.2	1.45795
298.15 K, x1 = 0.5035	836.46	1.45173
298.15 K, x1 = 0.6007	833.15	1.44634
298.15 K, x1 = 0.6996	830.05	1.44116
298.15 K, x1 = 0.793	827.33	1.43666
298.15 K, x1 = 0.9044	824.31	1.43178
298.15 K, x1 = 1	821.9	1.42748
303.15 K, x1 = 0.1041	849.63	1.47921
303.15 K, x1 = 0.1973	844.59	1.47041
303.15 K, x1 = 0.3018	839.8	1.46231
303.15 K, x1 = 0.4033	835.73	1.45514
303.15 K, x1 = 0.5035	832.13	1.44904
303.15 K, x1 = 0.6007	828.94	1.44377
303.15 K, x1 = 0.6996	825.95	1.43893
303.15 K, x1 = 0.793	823.32	1.43469
303.15 K, x1 = 0.9044	820.4	1.4298
303.15 K, x1 = 1	818.08	1.42561
308.15 K, x1 = 0.1041	844.83	1.47628
308.15 K, x1 = 0.1973	839.89	1.46762
308.15 K, x1 = 0.3018	835.26	1.45938
308.15 K, x1 = 0.4033	831.33	1.45234
308.15 K, x1 = 0.5035	827.86	1.44634
308.15 K, x1 = 0.6007	824.78	1.44118
308.15 K, x1 = 0.6996	821.9	1.43647
308.15 K, x1 = 0.793	819.36	1.43239
308.15 K, x1 = 0.9044	816.55	1.42757
308.15 K, x1 = 1	814.31	1.42369
313.15 K, x1 = 0.1041	840.03	1.47333
313.15 K, x1 = 0.1973	835.16	1.46463
313.15 K, x1 = 0.3018	830.67	1.45656
313.15 K, x1 = 0.4033	826.9	1.44956
313.15 K, x1 = 0.5035	823.56	1.44362
313.15 K, x1 = 0.6007	820.6	1.43864
313.15 K, x1 = 0.6996	817.82	1.43413
313.15 K, x1 = 0.793	815.37	1.43002
313.15 K, x1 = 0.9044	812.65	1.42559
313.15 K, x1 = 1	811.09	1.42169
318.15 K, x1 = 0.1041	835.18	1.47014
318.15 K, x1 = 0.1973	830.43	1.46186
318.15 K, x1 = 0.3018	826.08	1.45372
318.15 K, x1 = 0.4033	822.45	1.44685
318.15 K, x1 = 0.5035	819.25	1.44101
318.15 K, x1 = 0.6007	816.41	1.43601
318.15 K, x1 = 0.6996	813.74	1.43149
318.15 K, x1 = 0.793	811.38	1.4277
318.15 K, x1 = 0.9044	808.77	1.42342
318.15 K, x1 = 1	807.7	1.41973
323.15 K, x1 = 0.1041	831.72	1.46755
323.15 K, x1 = 0.1973	827.05	1.45882
323.15 K, x1 = 0.3018	822.76	1.45094
323.15 K, x1 = 0.4033	819.26	1.44415
323.15 K, x1 = 0.5035	816.18	1.43836
323.15 K, x1 = 0.6007	813.46	1.43341
323.15 K, x1 = 0.6996	810.87	1.42902
323.15 K, x1 = 0.793	808.58	1.42541
323.15 K, x1 = 0.9044	806.05	1.42136
323.15 K, x1 = 1	804.05	1.41783
333.15 K, x1 = 0.1041	822.45	1.46181
333.15 K, x1 = 0.1973	817.92	1.45314
333.15 K, x1 = 0.3018	813.92	1.44526
333.15 K, x1 = 0.4033	810.68	1.43873
333.15 K, x1 = 0.5035	807.88	1.43312
333.15 K, x1 = 0.6007	805.4	1.42831
333.15 K, x1 = 0.6996	803.05	1.42423
333.15 K, x1 = 0.793	800.97	1.42094
333.15 K, x1 = 0.9044	798.68	1.41714
333.15 K, x1 = 1	796.88	1.41407
